What was measured:
[1] = target: Kv1.3 channel (Homo sapiens, UniProt P22001); details: cited from earlier work
[2] = target: T1, human Kv1.3 ion channel (Homo sapiens, UniProt P22001); assay: Inhibition of Kv1.3 currents, planar patch clamp; format: cell-based; details: Human Jurkat cells or CHO cells stably transfected with hKv1.3; averaged dose response data from 3 or more cells
T1 construct: Human Jurkat cells (which endogenously express hKv1.3) or Chinese Hamster Ovary (CHO) cells stably transfected with hKv1.3 were used; endogenous in cells; host or cells: Human Jurkat cells (endogenous) or CHO cells stably transfected with hKv1.3
T1 sequence (P22001 whole entry): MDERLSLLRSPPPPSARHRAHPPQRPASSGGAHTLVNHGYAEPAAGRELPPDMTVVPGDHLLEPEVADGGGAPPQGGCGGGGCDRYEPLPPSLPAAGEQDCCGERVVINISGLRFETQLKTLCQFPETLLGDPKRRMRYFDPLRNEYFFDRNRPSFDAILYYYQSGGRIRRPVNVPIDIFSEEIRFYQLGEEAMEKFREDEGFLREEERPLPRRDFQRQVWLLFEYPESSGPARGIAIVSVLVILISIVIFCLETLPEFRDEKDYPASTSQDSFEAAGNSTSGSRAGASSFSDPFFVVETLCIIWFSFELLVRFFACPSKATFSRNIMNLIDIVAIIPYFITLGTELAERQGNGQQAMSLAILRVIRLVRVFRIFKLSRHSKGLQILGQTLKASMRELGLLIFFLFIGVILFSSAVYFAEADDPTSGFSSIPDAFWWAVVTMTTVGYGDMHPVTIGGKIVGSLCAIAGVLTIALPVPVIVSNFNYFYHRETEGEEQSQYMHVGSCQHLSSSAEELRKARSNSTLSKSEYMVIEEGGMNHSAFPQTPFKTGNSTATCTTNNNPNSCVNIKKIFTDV
Experimental: Potency of compounds to inhibit the human Kv1.3 ion channel was determined as follows:
(§1) EC50 values for inhibition of Kv1.3 currents were determined by the method according to Schmitz et al (2005) Molecular Pharmacology 68, 1254-1270 with the following differences: • 1. Human Jurkat cells (which endogenously express hKv1.3) or Chinese Hamster Ovary (CHO) cells stably transfected with hKv1.3 were used in place of transfected rat L929 cells. • 2. All electrophysiology was performed using planar patch clamp (Port-A-Patch, Nanion Technologies Gmbh, Munich) in contrast to conventional patch clamp. • 3. EC50 values shown were determined from averaged dose response data obtained from 3 or more cells.

[3] = target: T2, hKv1.1 (Homo sapiens, UniProt Q09470); assay: Inhibition of Kv1.1 currents, planar patch clamp (selectivity); format: cell-based; details: CHO cells stably transfected with hKv1.1
T2 construct: expressed in transfected cells; host or cells: CHO cells, stably transfected
T2 sequence (Q09470 whole entry): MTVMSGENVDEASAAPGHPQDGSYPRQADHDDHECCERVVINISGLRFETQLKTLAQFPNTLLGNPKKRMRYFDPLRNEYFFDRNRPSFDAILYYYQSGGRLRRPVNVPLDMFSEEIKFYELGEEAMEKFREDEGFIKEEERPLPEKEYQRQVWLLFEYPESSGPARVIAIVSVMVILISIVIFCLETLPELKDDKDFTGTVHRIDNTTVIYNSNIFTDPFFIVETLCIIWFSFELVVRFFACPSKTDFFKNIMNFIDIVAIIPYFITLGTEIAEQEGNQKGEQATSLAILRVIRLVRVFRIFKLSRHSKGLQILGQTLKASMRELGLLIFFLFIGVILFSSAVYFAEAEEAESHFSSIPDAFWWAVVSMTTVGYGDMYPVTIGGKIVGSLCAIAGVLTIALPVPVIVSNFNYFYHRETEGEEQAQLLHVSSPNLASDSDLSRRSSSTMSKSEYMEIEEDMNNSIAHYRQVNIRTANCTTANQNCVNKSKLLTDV
Experimental: as §1, with “Kv1.1 and Kv1.5” for “Kv1.3”, “1.” for “1. Human Jurkat cells (which endogenously express hKv1.3) or”, “hKv1.1 and hKv1.5” for “hKv1.3”

[4] = target: hKv1.5 (Homo sapiens, UniProt P22460); assay: Inhibition of Kv1.5 currents, planar patch clamp (selectivity); format: cell-based; details: CHO cells stably transfected with hKv1.5
Sequence of hKv1.5 (P22460 whole entry): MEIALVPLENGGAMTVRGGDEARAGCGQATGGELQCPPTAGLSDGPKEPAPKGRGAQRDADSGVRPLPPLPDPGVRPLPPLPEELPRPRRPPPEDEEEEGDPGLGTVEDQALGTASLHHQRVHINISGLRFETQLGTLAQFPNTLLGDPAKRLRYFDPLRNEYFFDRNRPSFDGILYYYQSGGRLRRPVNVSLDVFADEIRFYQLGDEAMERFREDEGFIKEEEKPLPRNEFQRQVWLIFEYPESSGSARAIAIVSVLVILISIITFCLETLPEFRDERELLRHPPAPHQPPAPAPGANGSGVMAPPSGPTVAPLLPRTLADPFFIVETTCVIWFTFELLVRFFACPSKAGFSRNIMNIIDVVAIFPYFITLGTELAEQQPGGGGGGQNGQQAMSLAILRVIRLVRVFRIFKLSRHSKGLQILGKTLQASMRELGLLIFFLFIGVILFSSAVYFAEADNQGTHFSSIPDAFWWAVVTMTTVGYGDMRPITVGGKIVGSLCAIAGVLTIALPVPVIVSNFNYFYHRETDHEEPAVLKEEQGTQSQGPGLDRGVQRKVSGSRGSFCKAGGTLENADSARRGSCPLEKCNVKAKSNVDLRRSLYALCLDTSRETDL
Experimental: as §1, with “Kv1.1 and Kv1.5” for “Kv1.3”, “1.” for “1. Human Jurkat cells (which endogenously express hKv1.3) or”, “hKv1.1 and hKv1.5” for “hKv1.3”

Sequence of Kv1.3 channel (P22001 whole entry): as the sequence (P22001 whole entry) above

SMILES	EC50 [2]	further results
COc1c2occc2cc2ccc(=O)oc12 [8-Methoxypsoralen (8-MOP), 8-Methoxypsoralen]	–	blocking activity on the Kv1.3 channel [1]: weak blocking activity
COc1c(C(C)=O)c(O)c(OC)c2occc12 [Khellinone]	–	blocking activity on the Kv1.3 channel [1]: weak blocking activity
COc1c(Cl)c(C)c(C(C)=O)c(OCCN2CCSCC2)c1OCCCc1ccccc1 [Example 36, 1-[3-Chloro-4-methoxy-2-methyl-5-(3-phenyl-propoxy)-6-(2-thiomorpholin-4-yl-ethoxy)-phenyl]-ethanone]	50 to 150 nM	–
COc1c(C)c(C)c(C(C)=O)c(OCCNC2CCCC2)c1OCCC(C)c1ccc(F)cc1 (stereo not drawn) [Example 6, 1-{2-(2-Cyclopentylamino-ethoxy)-3-[3-(4-fluoro-phenyl)-butoxy]-4-methoxy-5,6-dimethyl-phenyl}-ethanone]	< 50 nM	–
COc1c(C)c(C)c(C(C)=O)c(OCCN2CCOCC2)c1OCCCc1ccc(F)cc1 [Example 3c, 1-[3-[3-(4-Fluoro-phenyl)-propoxy]-4-methoxy-5,6-dimethyl-2-(2-morpholin-4-yl-ethoxy)-phenyl]-ethanone]	50 to 150 nM	–
COc1c(Cl)c(C)c(C(C)=O)c(OCCN2CCOCC2)c1OCCC(C)c1ccc(F)cc1 (stereo not drawn) [Example 8b, 1-[3-Chloro-5-[3-(4-fluoro-phenyl)-butoxy]-4-methoxy-2-methyl-6-(2-morpholin-4-yl-ethoxy)-phenyl]-ethanone]	< 50 nM	Selectivity for Kv1.3 over Kv1.1 [3]: 33 fold; selectivity for Kv1.3 over Kv1.5 [4]: 35 fold
COc1c(Cl)c(C)c(C(C)=O)c(OCCN2CC[C@@H](F)C2)c1OCCC(C)c1ccc(F)cc1 (stereo partly drawn) [Example 12, 1-{3-Chloro-5-[3-(4-fluoro-phenyl)-butoxy]-6-[2-(R-3-fluoro-pyrrolidin-1-yl)-ethoxy]-4-methoxy-2-methyl-phenyl}-ethanone]	< 50 nM	–
COc1cc(O)c(C(C)=O)c(OCCCCOc2ccccc2)c1 [reference compound]	150 to 300 nM	–
COc1ccc(C(C)=O)c(NCCCc2ccccc2)c1 [reference compound]	> 300 nM	–
CCCC(=O)c1ccc(NC(C)=O)cc1OCCCc1ccccc1 [reference compound]	> 300 nM	–
COc1c(Cl)c(C)c(C(C)=O)c(OCCN2CCC(F)(F)CC2)c1OCCC(C)c1ccc(F)cc1 (stereo not drawn) [Example 16, 1-{3-Chloro-6-[2-(4,4-difluoro-piperidin-1-yl)-ethoxy]-5-[3-(4-fluoro-phenyl)-butoxy]-4-methoxy-2-methyl-phenyl}-ethanone]	50 to 150 nM	–
COc1c(Cl)c(C)c(C(C)=O)c(OCCc2ccccn2)c1OCCC(C)c1ccc(F)cc1 (stereo not drawn) [Example 7d, 1-[3-Chloro-5-[3-(4-fluoro-phenyl)-butoxy]-4-methoxy-2-methyl-6-(2-pyridin-2-yl-ethoxy)-phenyl]-ethanone]	< 50 nM	Selectivity for Kv1.3 over Kv1.1 [3]: 45 fold; selectivity for Kv1.3 over Kv1.5 [4]: 37 fold
COc1c(Cl)c(C)c(C(C)=O)c(OCCN2CCCCC2)c1OCCC(C)c1ccc(F)cc1 (stereo not drawn) [Example 10, 1-[3-Chloro-5-[3-(4-fluoro-phenyl)-butoxy]-4-methoxy-2-methyl-6-(2-piperidin-1-yl-ethoxy)-phenyl]-ethanone]	< 50 nM	–
COc1c(Cl)c(C)c(C(C)=O)c(OCCN2CC(=O)C2)c1OCCCc1ccccc1 [Example 39, 1-[3-Chloro-6-[2-(3-oxo-azetidin-1-yl)-ethoxy]-4-methoxy-2-methyl-5-(3-phenyl-propoxy)-phenyl]-ethanone]	> 300 nM	–
COc1c(Cl)c(C)c(C(C)=O)c(OCCc2ccccn2)c1CCCCc1ccccc1 [Example 27, 1-(3-Chloro-4-methoxy-2-methyl-5-(4-phenylbutyl)-6-(2-(pyridine-2-yl)ethoxy)phenyl)ethanone]	< 50 nM	–
COc1c(Cl)c(C)c(C(C)=O)c(OCCN2CC(F)(F)C2)c1OCCC(C)c1ccc(F)cc1 (stereo not drawn) [Example 20, 1-{3-Chloro-6-[2-(3,3-difluoro-azetidin-1-yl)-ethoxy]-5-[3-(4-fluoro-phenyl)-butoxy]-4-methoxy-2-methyl-phenyl}-ethanone]	50 to 150 nM	–
COc1c(Cl)c(C)c(C(C)=O)c(OCCN2CCC(F)CC2)c1OCCC(C)c1ccc(F)cc1 (stereo not drawn) [Example 11, 1-{3-Chloro-5-[3-(4-fluoro-phenyl)-butoxy]-6-[2-(4-fluoro-piperidin-1-yl)-ethoxy]-4-methoxy-2-methyl-phenyl}-ethanone]	50 to 150 nM	–
COc1c(Cl)c(C)c(C(C)=O)c(OCCN(C)C)c1OCCC(C)c1ccc(F)cc1 (stereo not drawn) [Example 40, 1-{3-Chloro-6-(2-dimethylamino-ethoxy)-5-[3-(4-fluoro-phenyl)-butoxy]-4-methoxy-2-methyl-phenyl}-ethanone]	50 to 150 nM	–

SMILES	EC50 [2]	further results
COc1cc(C)c(C(C)=O)c(O)c1OCCCc1ccccc1 [Example 33a, 1-(3-(3-(phenyl)propoxy)-2-hydroxy-4-methoxy-6-methylphenyl)ethanone, reference compound]	> 300 nM	–
COc1c(Cl)c(C)c(C(C)=O)c(OCCN2CCOC[C@@H]2C)c1OCCC(C)c1ccc(F)cc1 (stereo partly drawn) [Example 42, 1-{3-Chloro-5-[3-(4-fluoro-phenyl)-butoxy]-4-methoxy-2-methyl-6-[2-((S)-3-methyl-morpholin-4-yl)-ethoxy]-phenyl}-ethanone]	50 to 150 nM	–
COc1c(Cl)c(C)c(C(C)=O)c(OCCn2ccnc2)c1OCCC(C)c1ccc(F)cc1 (stereo not drawn) [Example 41, 1-[3-Chloro-5-[3-(4-fluoro-phenyl)-butoxy]-6-(2-imidazol-1-yl-ethoxy)-4-methoxy-2-methyl-phenyl]-ethanone]	< 50 nM	–
COc1c(Cl)c(C)c(C(C)=O)c(OCCN2CCC(=O)CC2)c1OCCC(C)c1ccc(F)cc1 (stereo not drawn) [Example 15, 1-{3-Chloro-5-[3-(4-fluoro-phenyl)-butoxy]-6-[2-(4-oxo-piperidin-1-yl)-ethoxy]-4-methoxy-2-methyl-phenyl}-ethanone]	< 50 nM	–
COc1c(Cl)c(C)c(C(C)=O)c(OCCN2CC(O)C2)c1OCCCc1ccccc1 [Example 38, 1-[3-Chloro-6-[2-(3-hydroxy-azetidin-1-yl)-ethoxy]-4-methoxy-2-methyl-5-(3-phenyl-propoxy)-phenyl]-ethanone]	> 300 nM	–
CC(=O)c1c(OCCCCOc2ccccc2)cccc1OCCN1CCOCC1 [reference compound]	> 300 nM	–
COc1c(Cl)c(C)c(C(C)=O)c(OCCN2CC(F)(F)C2)c1OCCCc1ccccc1 [Example 35, 1-[3-Chloro-6-[2-(3,3-difluoro-azetidin-1-yl)-ethoxy]-4-methoxy-2-methyl-5-(3-phenyl-propoxy)-phenyl]-ethanone]	> 300 nM	–
COc1c(Cl)c(C)c(C(C)=O)c(OCCN2CCOCC2)c1CCCC(C)c1ccc(F)cc1 (stereo not drawn) [Example 31b, 1-(3-Chloro-5-(4-(4-fluorophenyl)pentyl)-4-methoxy-2-methyl-6-(2-morpholinoethoxy)phenyl)ethanone]	50 to 150 nM	–
CC(=O)c1ccc(N)cc1OCCCc1ccccc1 [reference compound]	> 300 nM	–
COc1c(Cl)c(C)c(C(C)=O)c(OCCNC2CCCC2)c1OCCCc1ccccc1 [Example 34c, 1-[3-Chloro-6-(2-cyclopentylamino-ethoxy)-4-methoxy-2-methyl-5-(3-phenyl-propoxy)-phenyl]-ethanone]	50 to 150 nM	–
COc1c(Cl)c(C)c(C(C)=O)c(OCCc2ccccn2)c1CCCC(C)c1ccc(F)cc1 (stereo not drawn) [Example 32, 1-[3-Chloro-5-[4-(4-fluoro-phenyl)-pentyl]-4-methoxy-2-methyl-6-(2-pyridin-2-yl-ethoxy)-phenyl]-ethanone]	< 50 nM	–
CC(=O)Nc1ccc(C(C)=O)c(OCCCc2ccccc2)c1 [reference compound]	> 300 nM	–
COc1c(Cl)c(C)c(C(C)=O)c(OCCN2CCOCC2)c1OCCCc1ccc(F)cc1 [Example 1f, 1-(3-Chloro-5-(3-(4-fluorophenyl)propoxy)-4-methoxy-2-methyl-6-(2-morpholinoethoxy)phenyl)ethanone]	50 to 150 nM	–
C=CCc1c(NC(C)=O)ccc(C(C)=O)c1OCCCc1ccccc1 [reference compound]	> 300 nM	–
COc1c(Cl)c(C)c(C(C)=O)c(OCCN2CCC(F)(F)C2)c1OCCCc1ccccc1 [Example 37, 1-[3-Chloro-6-[2-(3,3-difluoro-pyrrolidin-1-yl)-ethoxy]-4-methoxy-2-methyl-5-(3-phenyl-propoxy)-phenyl]-ethanone]	150 to 300 nM	–
COc1c(Cl)c(C)c(C(C)=O)c(OCCCN2CCS(=O)(=O)CC2)c1OCCC(C)c1ccc(F)cc1 (stereo not drawn) [Example 23, 1-{3-Chloro-6-[3-(1,1-dioxo-thiomorpholin-4-yl)-propoxy]-5-[3-(4-fluoro-phenyl)-butoxy]-4-methoxy-2-methyl-phenyl}-ethanone]	< 50 nM	–
COc1c(Cl)c(C)c(C(C)=O)c(OCCN2CCOCC2)c1CCCCc1ccccc1 [Example 26b, 1-(3-Chloro-4-methoxy-2-methyl-6-(2-morpholinoethoxy)-5-5(4-phenylbutyl)phenyl)ethanone]	< 50 nM	–

From US8202513B2, “Aryl potassium channel blockers and uses thereof” (Bionomics Limited, priority 2007, dated 2012)
